Series [1] has as its target Cyclin-dependent kinase 4 (Homo sapiens) (UniProt P11802). Briefly: Inhibition of CDK4 ubiquitination in HEK293 cells overexpressing CHIP upto 50 uM by Western blot analysis. The series is classed as cell-based.
Series [2] in a line: Stability of compound in ammonium bicarbonate buffer at pH 7.8 at 0.1 mg/ml incubated for 24 hrs by HPLC/MS analysis. Format: physicochemical. Particulars: pH 7.8, 24 h.
Series [3] in a line: Aggregation propensity of the compound in D2O assessed as signal shift at 1 mM measured for 24 hrs by 1H-NMR analysis. The series is classed as physicochemical. To be noted: 1000 µM.
For a further series, the species on record is Homo sapiens. Briefly: Disruption of Uba1/UbcH5B (unknown origin) interaction assessed as inhibition of UbcH5B-ubiquitin conjugate formation at 50 uM preincubated for 30 mins followed by ubiquitin addition measured after 30 mins by Western blot analysis. Background: Immunoblotting shows a protein as a band on a membrane.
Series [4] deals with T1, E3 ubiquitin-protein ligase CHIP (Homo sapiens) (UniProt Q9UNE7).
T1 sequence (whole entry): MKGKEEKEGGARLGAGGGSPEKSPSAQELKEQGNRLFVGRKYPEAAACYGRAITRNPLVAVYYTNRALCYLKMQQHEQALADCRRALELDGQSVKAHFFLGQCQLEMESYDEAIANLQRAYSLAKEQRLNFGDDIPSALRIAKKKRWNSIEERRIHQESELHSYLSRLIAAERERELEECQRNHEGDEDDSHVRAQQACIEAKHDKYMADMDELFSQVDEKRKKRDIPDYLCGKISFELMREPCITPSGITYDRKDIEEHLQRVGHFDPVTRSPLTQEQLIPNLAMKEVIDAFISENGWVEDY
Put plainly: Inhibition of N-terminal Flag-tagged full-length U-box E3 CHIP (unknown origin) self-ubiquitination expressed in Escherichia coli BL21 (DE3) cells assessed as decrease in polyubiquitination at 50 uM preincubated for 30 mins followed by ubiquitin addition measured after 1 hr by Western blot analysis. Particulars: time 90.0 min.

A short description of series [5]: Stability of compound in human serum at 1 mg incubated for 24 hrs by HPLC analysis. Format: ADME, cell-free.
Series [6] is described as follows: Aggregation propensity of the compound in D2O assessed as signal shift at 1 mM measured after 10 days by 1H-NMR analysis. The series is classed as physicochemical. To be noted: 240 h, 1000 µM, time 10 day.
A further series deals with HEK293. Put plainly: Cytotoxicity against HEK293 cells assessed as cell membrane disruption upto 100 uM incubated for 24 hrs by DAPI/PI staining based confocal microscopy. To be noted: human, hek293, 24 h. Format: toxicity.
Series [7] has as its target T1, E3 ubiquitin-protein ligase CHIP (Homo sapiens). Briefly: Inhibition of CHIP (unknown origin) self-ubiquitination upto 50 uM in presence of ubiquitin-preloaded UbcH5B by Western blot analysis.
Series [8] has the same target. Put plainly: Inhibition of CHIP-mediated CDK4 ubiquitination in HEK293T cells upto 50 uM preincubated for 14 hrs followed by MG132 addition measured after 12 hrs by Western blot analysis. The series is classed as cell-based. Particulars: time 26.0 hrs.
The target is the same in series [9]. Put plainly: Inhibition of N-terminal Flag-tagged full-length U-box E3 CHIP (unknown origin)-mediated CDK4 monoubiquitination expressed in Escherichia coli BL21 (DE3) cells upto 50 uM preincubated for 30 mins followed by ubiquitin addition measured after 1 hr by Western blot analysis. Particulars: time 90.0 min.
In a further series the test system is Erythrocyte. Put plainly: Hemolytic activity in human RBC assessed as cell membrane disruption upto 400 uM incubated for 1 hr by microplate reader analysis. Format: toxicity, cell-based.
Series [10] concerns the target T1, E3 ubiquitin-protein ligase CHIP (Homo sapiens). Briefly: Inhibition of N-terminal Flag-tagged full-length U-box E3 CHIP (unknown origin) self-ubiquitination expressed in Escherichia coli BL21 (DE3) cells assessed as decrease in polyubiquitination at upto 50 uM preincubated for 30 mins followed by ubiquitin addition measured after 1 hr by Western blot analysis. To be noted: time 90.0 min.

The target is the same in series [11]. Put plainly: Inhibition of N-terminal Flag-tagged full-length U-box E3 CHIP (unknown origin) self-ubiquitination expressed in Escherichia coli BL21 (DE3) cells assessed as inhibition of Uba1-UbcH5B-CHIP cascade at upto 50 uM preincubated for 30 mins followed by ubiquitin addition measured after 1 hr by Western blot analysis. Particulars: time 90.0 min.
The target of series [12] is T2, Ubiquitin-like modifier-activating enzyme 1 (Homo sapiens) (UniProt P22314).
T2 sequence (whole entry): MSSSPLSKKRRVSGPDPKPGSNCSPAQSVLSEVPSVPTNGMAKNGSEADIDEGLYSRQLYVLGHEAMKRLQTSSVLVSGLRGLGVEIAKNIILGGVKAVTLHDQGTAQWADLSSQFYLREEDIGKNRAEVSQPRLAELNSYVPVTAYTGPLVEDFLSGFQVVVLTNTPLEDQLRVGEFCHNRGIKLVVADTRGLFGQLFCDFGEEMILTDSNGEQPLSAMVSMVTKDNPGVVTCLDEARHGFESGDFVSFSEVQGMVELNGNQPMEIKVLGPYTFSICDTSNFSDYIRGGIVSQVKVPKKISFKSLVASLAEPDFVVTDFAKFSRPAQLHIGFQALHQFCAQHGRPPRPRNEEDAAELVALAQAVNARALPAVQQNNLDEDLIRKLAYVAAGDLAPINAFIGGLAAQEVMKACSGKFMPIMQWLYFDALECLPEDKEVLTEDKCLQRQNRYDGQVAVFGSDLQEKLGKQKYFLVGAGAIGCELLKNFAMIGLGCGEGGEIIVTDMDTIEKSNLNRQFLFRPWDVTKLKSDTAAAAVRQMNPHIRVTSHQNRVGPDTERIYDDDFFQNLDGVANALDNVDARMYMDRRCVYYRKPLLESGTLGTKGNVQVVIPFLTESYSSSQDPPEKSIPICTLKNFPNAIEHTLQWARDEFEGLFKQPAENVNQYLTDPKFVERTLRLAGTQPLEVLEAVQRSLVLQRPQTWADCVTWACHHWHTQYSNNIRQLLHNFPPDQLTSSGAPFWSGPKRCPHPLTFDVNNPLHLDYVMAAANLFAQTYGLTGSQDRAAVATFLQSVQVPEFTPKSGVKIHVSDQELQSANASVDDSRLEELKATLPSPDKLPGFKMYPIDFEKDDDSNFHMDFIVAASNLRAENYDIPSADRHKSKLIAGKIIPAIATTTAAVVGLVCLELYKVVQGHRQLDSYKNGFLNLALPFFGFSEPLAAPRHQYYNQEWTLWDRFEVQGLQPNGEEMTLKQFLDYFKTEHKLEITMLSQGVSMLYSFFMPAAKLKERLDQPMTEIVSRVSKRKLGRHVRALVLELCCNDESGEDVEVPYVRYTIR
Briefly: Binding affinity to His-tagged Uba1 (unknown origin)-coated Ni-NTA beads assessed as measuring green fluorescence at 10 uM incubated for 30 mins by laser scanning microscopy.

Active and inactive are the calls of the source. No cut-off for these calls is given here. *1 amine or outer side, *2 acyl side, *3 side chain or, on linkers, in order; H or OH if unused. Where a SMILES comes first, the peptide text is derived from it. [ ]: non-standard residue; d: D form. X1 = N=C(N)CCCC[C@H](N[*:1])C(=O)[*:2]

Cyclin-dependent kinase 4 (Homo sapiens), sequence (P11802 whole entry): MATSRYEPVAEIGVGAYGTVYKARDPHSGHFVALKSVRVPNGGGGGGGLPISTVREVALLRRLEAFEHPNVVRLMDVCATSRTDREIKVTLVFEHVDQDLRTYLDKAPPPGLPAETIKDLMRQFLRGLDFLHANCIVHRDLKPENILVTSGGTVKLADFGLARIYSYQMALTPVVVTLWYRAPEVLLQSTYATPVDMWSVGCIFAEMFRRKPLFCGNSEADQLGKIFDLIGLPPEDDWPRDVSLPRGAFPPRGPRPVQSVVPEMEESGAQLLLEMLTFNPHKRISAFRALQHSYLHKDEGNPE

In the case of `COc1ccc(S(=O)(=O)N(CC(=O)N[C@@H]2CCCCNC(=O)c3ccc(cc3)C(=O)NCCCC[C@H](CN(CC(=O)N[C@H](CCCCN)CN(CC(=O)N[C@H](CC(C)C)CN(CC(=O)N[C@H](CCCCN)CN(CC(=O)N[C@H](CC(C)C)CN(CC(N)=O)S(=O)(=O)CCN)S(C)(=O)=O)S(=O)(=O)CC(C)C)S(C)(=O)=O)S(C)(=O)=O)NC(=O)CN(S(=O)(=O)CCN)C[C@@H](CCCCN)NC(=O)CN(S(C)(=O)=O)C2)C[C@@H](CCCCN)NC(C)=O)cc1`, the inhibition entry (in [1]; in the series listed under Homo sapiens; in series [4]; in series [8]; in [9]) was “Active” throughout. The Stability result in series [2] and in series [5] was “Stable” throughout. Besides, the Activity result is “Not Active” in series [3], “Active” in [6], “Non-Toxic” with HEK293 and “Non-Toxic” in the series with Erythrocyte. In series [7], the inhibition result is “inactive”.

On to `CC[C@H](C)[C@H](NC(=O)[C@H](CCC(=O)O)NC(=O)[C@H](CCCCN)NC(=O)[C@H](CCSC)NC(=O)[C@@H](NC(=O)[C@H](CCCNC(=N)N)NC(=O)[C@H](CCCCN)NC(=O)[C@H](C)NC(=O)[C@H](CCCCC(=N)N)NC(=O)[C@H](CO)NC(=O)[C@H](CO)NC(C)=O)[C@@H](C)CC)C(=O)N[C@@H](CCC(N)=O)C(=O)N[C@@H](C)C(=O)N[C@H](C(=O)N[C@@H](CCCCN)C(=O)N[C@@H](CC(=O)O)C(N)=O)C(C)C` (Ac-SS[X1]AKRIMKEIQAVKD-NH2), for which the Stability result in series [2] and in series [5] was “Stable” throughout.

Consider `CC(=O)N[C@H](CO)CN(CC(=O)N[C@H](C)CN(CC(=O)N[C@H](CCCCN)CN(CC(=O)N[C@H](CC(C)C)CN(CC(=O)N[C@H](CCCCN)CN(CC(=O)N[C@@H]1CCCCNC(=O)c2ccc(cc2)C(=O)NCCCC[C@H](CN(CC(N)=O)S(C)(=O)=O)NC(=O)CN(S(=O)(=O)CC(C)C)C[C@@H](CCC(=O)O)NC(=O)CN(S(C)(=O)=O)C1)S(C)(=O)=O)S(=O)(=O)CCN)S(=O)(=O)CCN)S(=O)(=O)CC(C)C)S(=O)(=O)CC(C)C`, for which the inhibition result in [10] and in series [9] was “inactive” in each case.

As to `CC(=O)N[C@H](CO)CN(CC(=O)N[C@H](C)CN(CC(=O)N[C@H](CCCCN)CN(CC(=O)N[C@@H]1CCCCNC(=O)c2ccc(cc2)C(=O)NCCCC[C@H](CN(CC(=O)N[C@H](CCC(=O)O)CN(CC(=O)N[C@H](CCCCN)CN(CC(N)=O)S(=O)(=O)CCN)S(=O)(=O)CC(C)C)S(C)(=O)=O)NC(=O)CN(S(C)(=O)=O)C[C@@H](CCCCN)NC(=O)CN(S(C)(=O)=O)C1)S(=O)(=O)CCN)S(=O)(=O)CC(C)C)S(=O)(=O)CC(C)C`, the inhibition result in series [10] and in series [9] was “inactive” in each case.

With `CC(=O)N[C@H](CO)CN(CC(=O)N[C@H](C)CN(CC(=O)N[C@H](CCCCN)CN(CC(=O)N[C@H](CC(C)C)CN(CC(=O)N[C@H](CCCCN)CN(CC(=O)N[C@H](CC(C)C)CN(CC(=O)N[C@H](CCC(=O)O)CN(CC(=O)N[C@H](CCCCN)CN(CC(N)=O)S(=O)(=O)CCN)S(=O)(=O)CC(C)C)S(=O)(=O)CCN)S(C)(=O)=O)S(=O)(=O)CCN)S(=O)(=O)CCN)S(=O)(=O)CC(C)C)S(=O)(=O)CC(C)C`, the inhibition result in [11] is “inactive”.

Take `COc1ccc(S(=O)(=O)N(CC(=O)N[C@@H](CCCCN)CN(CC(=O)N[C@@H](CCCCN)CN(CC(=O)N[C@@H](CC(C)C)CN(CC(=O)N[C@@H](CCCCN)CN(CC(=O)N[C@@H](CC(C)C)CN(CC(=O)N[C@@H](CCCCN)CN(CC(=O)N[C@@H](CC(C)C)CN(CC(N)=O)S(=O)(=O)CCN)S(C)(=O)=O)S(=O)(=O)CC(C)C)S(C)(=O)=O)S(=O)(=O)CCN)S(=O)(=O)CCN)S(C)(=O)=O)C[C@H](CCCCN)NC(C)=O)cc1`: the result in [12] was inactive. In addition, the inhibition result in [11] was “inactive”.

Consider `COc1ccc(S(=O)(=O)N(CC(=O)N[C@H](CCCCN)CN(CC(=O)N[C@H](CCCCN)CN(CC(=O)N[C@H](CC(C)C)CN(CC(=O)N[C@H](CCCCN)CN(CC(=O)N[C@@H]2CCCCNC(=O)c3ccc(cc3)C(=O)NCCCC[C@H](CN(CC(N)=O)S(C)(=O)=O)NC(=O)CN(S(C)(=O)=O)C[C@@H](CCCCN)NC(=O)CN(S(C)(=O)=O)C2)S(C)(=O)=O)S(=O)(=O)CCN)S(=O)(=O)CCN)S(C)(=O)=O)C[C@@H](CCCCN)NC(C)=O)cc1`, for which the inhibition result in series [4] was “Active”. The inhibition entry in series [9] was “inactive”.

Regarding `CC(=O)N[C@H](CO)CN(CC(=O)N[C@@H]1CCCCNC(=O)c2ccc(cc2)C(=O)NCCCC[C@H](CN(CC(=O)N[C@H](CCCCN)CN(CC(=O)N[C@H](CC(C)C)CN(CC(=O)N[C@H](CCC(=O)O)CN(CC(=O)N[C@H](CCCCN)CN(CC(N)=O)S(=O)(=O)CCN)S(=O)(=O)CC(C)C)S(=O)(=O)CCN)S(C)(=O)=O)S(C)(=O)=O)NC(=O)CN(S(=O)(=O)CCN)C[C@@H](CCCCN)NC(=O)CN(S(C)(=O)=O)C1)S(=O)(=O)CC(C)C`, the inhibition entry in [10] and in series [9] was “inactive” throughout.
